ChEMBL document CHEMBL1129401, “Molecular electronic properties of a series of 4-quinolinecarbinolamines define antimalarial activity profile” (1996)

tested on: Plasmodium berghei; test: In vivo antimalarial activity against Plasmodium berghei infected mice (Mus musculus) at 640 mg/kg subcutaneous single dose; NC=non-curative; format: functional, organism-based; set-up: dose 640 mg/kg; details: not given

Row | Compound | MfI
1 | OC(c1ccnc2c(Cl)cccc12)C1CCCCN1 (stereo unspecified) | Noncurative dose
2 | OC(c1cc(-c2ccc(Cl)cc2)nc2c(Cl)cccc12)C1CCCCN1 (stereo unspecified) | Noncurative dose
3 | OC(c1cc(-c2ccc(Cl)cc2)nc2c1ccc1ccccc12)C1CCCCN1 (stereo unspecified) | Noncurative dose
4 | OC(c1ccnc2c(C(F)(F)F)cccc12)C1CCCCN1 (stereo unspecified) | Noncurative dose
5 | NC(=O)c1cc(C(O)C2CCCCN2)c2cccc(C(F)(F)F)c2n1 (stereo unspecified) | Noncurative dose
6 | OC(c1cc(C(F)(F)F)nc2c(F)cccc12)C1CCCCN1 (stereo unspecified) | Noncurative dose
7 | OC(c1ccnc2c(Cl)cc(Cl)cc12)C1CCCCN1 (stereo unspecified) | Noncurative dose
8 | Cc1cc(C(O)C2CCCCN2)c2cc(Cl)cc(Cl)c2n1 (stereo unspecified) | Noncurative dose
9 | Cc1cc(C)c2nc3c(c(C(O)C4CCCCN4)c2c1)CCC3 (stereo unspecified) | Noncurative dose
10 | Cc1cccc2c(C(O)C3CCCCN3)cc(C(F)(F)F)nc12 (stereo unspecified) | Noncurative dose
11 | O=C(Nc1cccc(C(F)(F)F)c1)c1cc(C(O)C2CCCCN2)c2cccc(C(F)(F)F)c2n1 (stereo unspecified) | Noncurative dose
12 | Cc1cc(C)c2nc(CC/C=C/c3ccc(Cl)cc3)cc(C(O)C3CCCCN3)c2c1 (stereo unspecified) | Noncurative dose
13 | Cc1cccc2c(C(O)C3CCCCN3)cc(-c3ccccc3)nc12 (stereo unspecified) | Noncurative dose
14 | Cc1ccc(-c2cc(C(O)C3CCCCN3)c3cccc(C)c3n2)cc1 (stereo unspecified) | Noncurative dose
15 | Cc1cc(C)c2nc(C(F)(F)F)cc(C(O)C3CCCCN3)c2c1 (stereo unspecified) | Noncurative dose

tested on: Plasmodium berghei; test: In vivo antimalarial activity against Plasmodium berghei infected mice (Mus musculus) at 640 mg/kg subcutaneous single dose; format: functional; details: not given

Row | Compound | MfI
16 | Cc1ccc(-c2cc(C(O)C3CCCCN3)c3cc(C)cc(C)c3n2)cc1 (stereo unspecified) | 0.1
17 | Cc1cccc2c(C(O)C3CCCCN3)cc(-c3ccc(F)cc3)nc12 (stereo unspecified) | 0.05
18 | OC(c1cc(-c2ccccc2)nc2c1ccc1ccccc12)C1CCCCN1 (stereo unspecified) | 0.1
19 | Cc1cc(C)c2nc(-c3ccc(Cl)cc3)cc(C(O)C3CCCCN3)c2c1 (stereo unspecified) | 0.03
20 | OC(c1cc(C(F)(F)F)nc2c(Cl)cc(Cl)cc12)C1CCCCN1 (stereo unspecified) | 0.17
21 | COc1ccc(-c2cc(C(O)C3CCCCN3)c3cc(C)cc(C)c3n2)cc1 (stereo unspecified) | 0.03
22 | Cc1cc(C)c2nc(Oc3ccc(Cl)cc3)cc(C(O)C3CCCCN3)c2c1 (stereo unspecified) | 0.03
23 | OC(c1cc(C(F)(F)F)nc2c(Cl)cccc12)C1CCCCN1 (stereo unspecified) | 0.03
24 | OC(c1cc(Oc2ccc(Cl)c(Cl)c2)nc2c(Cl)cc(Cl)cc12)C1CCCCN1 (stereo unspecified) | 0.87
25 | Cc1ccc(-c2cc(C(O)C3CCCCN3)c3cccc(C(F)(F)F)c3n2)cc1 (stereo unspecified) | 0.09
26 | OC(c1cc(-c2ccccc2)nc2c(Cl)cc(Cl)cc12)C1CCCCN1 (stereo unspecified) | 0.04
27 | Cc1cc(C)c2nc(Nc3ccc(Cl)cc3)cc(C(O)C3CCCCN3)c2c1 (stereo unspecified) | 0.03
28 | COc1ccc(-c2cc(C(O)C3CCCCN3)c3cccc(C(F)(F)F)c3n2)cc1 (stereo unspecified) | 0.07
29 | OC(c1cc(-c2ccccc2)nc2c(C(F)(F)F)cccc12)C1CCCCN1 (stereo unspecified) | 0.11
30 | Cc1cccc2c(C(O)C3CCCCN3)cc(-c3ccc(Cl)cc3)nc12 (stereo unspecified) | 0.07
31 | OC(c1cc(-c2ccc(Cl)cc2)nc2c(C(F)(F)F)cccc12)C1CCCCN1 (stereo unspecified) | 0.31
32 | COc1cc(C(F)(F)F)c2nc(C(F)(F)F)cc(C(O)C3CCCCN3)c2c1 (stereo unspecified) | 0.81
33 | OC(c1cc(C(F)(F)F)nc2c1cc(Cl)c1ccccc12)C1CCCCN1 (stereo unspecified) | 0.12
34 | OC(c1cc(-c2cccc(C(F)(F)F)c2)nc2c(C(F)(F)F)cccc12)C1CCCCN1 (stereo unspecified) | 1.2
35 | OC(c1cc(Oc2ccc(Cl)cc2)nc2c(Cl)cc(Cl)cc12)C1CCCCN1 (stereo unspecified) | 0.8
36 | OC(c1cc(-c2ccc(Cl)cc2)nc2c(Cl)cc(Cl)cc12)C1CCCCN1 (stereo unspecified) | 1.29
37 | Cc1cc(C)c2nc(-c3ccc(F)cc3)cc(C(O)C3CCCCN3)c2c1 (stereo unspecified) | 0.03
38 | OC(c1cc(-c2ccccc2)nc2c(Cl)cccc12)C1CCCCN1 (stereo unspecified) | 0.05
39 | OC(c1cc(C(F)(F)F)nc2c1ccc1ccccc12)C1CCCCN1 (stereo unspecified) | 0.13

same assay, conditions: 640 mg/kg

Row | Compound | MfI
40 | OC(c1cc(C(F)(F)F)nc2c(C(F)(F)F)cccc12)C1CCCCN1 (stereo in doubt; 1a) [MEFLOQUINE] | 1
41 | OC(c1cc(C(F)(F)F)nc2c(C(F)(F)F)cccc12)C1CCCCN1 (stereo in doubt; 1d) [MEFLOQUINE] | 0.81
